Measured values from patent publication US20240374581A1, “SALT TYPES OF TRICYCLIC TETRAHYDRO ISOQUINOLINE DERIVATIVE” (JIANGSU HENGRUI PHARMACEUTICALS CO., LTD., priority 2021, published 2024).

Experiments:
[1] = Hygroscopicity study (DVS); format: physicochemical; conditions: 25° C.; for Hygroscopicity grade: 0% RH-80.0% RH; for Hygroscopicity 0% RH-80.0% RH / Hygroscopicity 0.0% RH-95.0% RH: DVS
Method: DVS refers to dynamic vapor sorption: The measurement was conducted on SMS DVS Advantage; at 25° C., the humidity was changed as follows: 50%-95%-0%-95%-50%, in steps of 10% (5% for the last step) (specific humidity ranges are shown in corresponding patterns, and those listed here were used in most cases); the criterion was dm/dt≤0.002%.
The measurement was conducted with a Surface Measurement Systems intrinsic at 25° C., starting from 50% humidity in humidity range of 0%-95%, in steps of 10%; the criterion was dM/dT≤0.002% and TMAX of 360 min in two cycles.

[2] = Long-term/accelerated stability; format: physicochemical; conditions: for Crystal form: up to 3 months; for physical and chemical stability (conclusion): long-term/accelerated study for 3 months
[3] = Influencing factor stability study; conditions: for physical and chemical stability (conclusion): influencing factors

O=S(=O)(O)O.[2H]C1([2H])Oc2cc3c(cc2O1)[C@@H](c1ccc(NC2CN(CCCF)C2)cn1)N(CC(F)(F)CO)[C@H](C)C3 [Crystal form A of sulfate]
Hygroscopicity grade [1]: hygroscopic
Crystal form after DVS [1]: Deliquescence
Hygroscopicity 0% RH-80.0% RH [1]: 13.3%
Hygroscopicity 0.0% RH-95.0% RH [1]: 44.1%
Crystal form after DVS ([1]; listed as crystal form A): deliquesced
Purity (%) 1 month ([2]; 25° C./60% RH): 98.9%
Purity (%) 2 months ([2]; 25° C./60% RH): 98.7%
Purity (%) 3 months ([2]; 25° C./60% RH): 98.8%
Purity (%) 7 days ([2]; 25° C./60% RH): 99.0%
Purity (%) 14 days ([2]; 25° C./60% RH): 98.9%
Purity (%) Initial ([2]; 25° C./60% RH): 98.9%
Crystal form ([2]; 25° C./60% RH): Unchanged
Purity (%) 1 month ([2]; 40° C./75% RH): 98.7%
Purity (%) 2 months ([2]; 40° C./75% RH): 98.2%
Purity (%) 3 months ([2]; 40° C./75% RH): 98.1%
Purity (%) 7 days ([2]; 40° C./75% RH): 99.2%
Purity (%) 14 days ([2]; 40° C./75% RH): 98.9%
Purity (%) Initial ([2]; 40° C./75% RH): 98.9%
Crystal form ([2]; 40° C./75% RH): Unchanged
physical and chemical stability (conclusion) [2]: good physical and chemical stability
Crystal form ([3]; 40° C., 1 month): Crystal form A
Purity (%) ([3]; 40° C., 1 month): 98.0%
Crystal form ([3]; 40° C., 5 days): Crystal form A
Purity (%) ([3]; 40° C., 5 days): 98.8%
Crystal form ([3]; 40° C., 10 days): Crystal form A
Purity (%) ([3]; 40° C., 10 days): 98.7%
Crystal form ([3]; 60° C., 1 month): Crystal form A
Purity (%) ([3]; 60° C., 1 month): 97.3%
Crystal form ([3]; 60° C., 5 days): Crystal form A
Purity (%) ([3]; 60° C., 5 days): 98.7%
Crystal form ([3]; 60° C., 10 days): Crystal form A
Purity (%) ([3]; 60° C., 10 days): 98.6%
behaviour under the high-humidity conditions (conclusion) ([3]; 75% RH and 92.5% RH, 30 days): deliquesced
Crystal form ([3]; 75% RH, 1 month): Deliquescence
Purity (%) ([3]; 75% RH, 1 month): 94.8%
Crystal form ([3]; 75% RH, 5 days): Deliquescence
Purity (%) ([3]; 75% RH, 5 days): 97.8%
Crystal form ([3]; 75% RH, 10 days): Deliquescence
Purity (%) ([3]; 75% RH, 10 days): 96.6%
Crystal form ([3]; 92.5% RH, 1 month): Deliquescence
Purity (%) ([3]; 92.5% RH, 1 month): 95.1%
Crystal form ([3]; 92.5% RH, 5 days): Deliquescence
Purity (%) ([3]; 92.5% RH, 5 days): 98.1%
Crystal form ([3]; 92.5% RH, 10 days): Deliquescence
Purity (%) ([3]; 92.5% RH, 10 days): 97.3%
Crystal form ([3]; 4500 Lux, 1 month): Crystal form A
Purity (%) ([3]; 4500 Lux, 1 month): 92.9%
Crystal form ([3]; 4500 Lux, 5 days): Crystal form A
Purity (%) ([3]; 4500 Lux, 5 days): 97.4%
Crystal form ([3]; 4500 Lux, 10 days): Crystal form A
Purity (%) ([3]; 4500 Lux, 10 days): 96.0%
Crystal form ([3]; Initial, 0 days): Crystal form A
Purity (%) ([3]; Initial, 0 days): 98.9%
physical and chemical stability (conclusion) ([3]; 30 days): good physical and chemical stability under other conditions except the lighting condition

O=P(O)(O)O.O=P(O)(O)O.O=P(O)(O)O.[2H]C1([2H])Oc2cc3c(cc2O1)[C@@H](c1ccc(NC2CN(CCCF)C2)cn1)N(CC(F)(F)CO)[C@H](C)C3 [Crystal form I of phosphate]
Hygroscopicity grade [1]: slightly
Crystal form after DVS [1]: Did not change
Hygroscopicity 0% RH-80.0% RH [1]: 1.2%
Hygroscopicity 0.0% RH-95.0% RH [1]: 7.1%
Crystal form after DVS ([1]; listed as crystal form I): did not change
Purity (%) 1 month ([2]; 25° C./60% RH): 99.3%
Purity (%) 2 months ([2]; 25° C./60% RH): 99.3%
Purity (%) 3 months ([2]; 25° C./60% RH): 99.2%
Purity (%) 7 days ([2]; 25° C./60% RH): 99.4%
Purity (%) 14 days ([2]; 25° C./60% RH): 99.5%
Purity (%) Initial ([2]; 25° C./60% RH): 99.4%
Crystal form ([2]; 25° C./60% RH): Unchanged
Purity (%) 1 month ([2]; 40° C./75% RH): 99.3%
Purity (%) 2 months ([2]; 40° C./75% RH): 99.2%
Purity (%) 3 months ([2]; 40° C./75% RH): 99.0%
Purity (%) 7 days ([2]; 40° C./75% RH): 99.5%
Purity (%) 14 days ([2]; 40° C./75% RH): 99.5%
Purity (%) Initial ([2]; 40° C./75% RH): 99.4%
Crystal form ([2]; 40° C./75% RH): Unchanged
physical and chemical stability (conclusion) [2]: good physical and chemical stability
Crystal form ([3]; 40° C., 1 month): Crystal form I
Purity (%) ([3]; 40° C., 1 month): 99.1%
Crystal form ([3]; 40° C., 5 days): Crystal form I
Purity (%) ([3]; 40° C., 5 days): 99.3%
Crystal form ([3]; 40° C., 10 days): Crystal form I
Purity (%) ([3]; 40° C., 10 days): 99.1%
Crystal form ([3]; 60° C., 1 month): Crystal form I
Purity (%) ([3]; 60° C., 1 month): 98.8%
Crystal form ([3]; 60° C., 5 days): Crystal form I
Purity (%) ([3]; 60° C., 5 days): 99.1%
Crystal form ([3]; 60° C., 10 days): Crystal form I
Purity (%) ([3]; 60° C., 10 days): 99.1%
Crystal form ([3]; 75% RH, 1 month): Crystal form I
Purity (%) ([3]; 75% RH, 1 month): 99.4%
Crystal form ([3]; 75% RH, 5 days): Crystal form I
Purity (%) ([3]; 75% RH, 5 days): 99.3%
Crystal form ([3]; 75% RH, 10 days): Crystal form I
Purity (%) ([3]; 75% RH, 10 days): 99.4%
Crystal form ([3]; 92.5% RH, 1 month): Crystal form I
Purity (%) ([3]; 92.5% RH, 1 month): 99.3%
Crystal form ([3]; 92.5% RH, 5 days): Crystal form I
Purity (%) ([3]; 92.5% RH, 5 days): 99.3%
Crystal form ([3]; 92.5% RH, 10 days): Crystal form I
Purity (%) ([3]; 92.5% RH, 10 days): 99.3%
Crystal form ([3]; 4500 Lux, 1 month): Crystal form I
Purity (%) ([3]; 4500 Lux, 1 month): 98.4%
Crystal form ([3]; 4500 Lux, 5 days): Crystal form I
Purity (%) ([3]; 4500 Lux, 5 days): 98.9%
Crystal form ([3]; 4500 Lux, 10 days): Crystal form I
Purity (%) ([3]; 4500 Lux, 10 days): 98.8%
Crystal form ([3]; Initial, 0 days): Crystal form I
Purity (%) ([3]; Initial, 0 days): 99.4%
physical and chemical stability (conclusion) ([3]; 30 days): good physical and chemical stability
